Legend:
[1] = target: T1, oxygenase domain of nNOS (nNOSoxy) (Rattus norvegicus, UniProt P29476); test: UV-visible difference spectroscopy titration of nNOSoxy; type: binding; details: UV/Vis difference spectroscopy, ± SD, three experiments; read-out: Apparent equilibrium constant Ks nNOSoxy
T1 construct: the oxygenase domain of nNOS (nNOSoxy) and iNOS (iNOSoxy); made in house; host or cells: Escherichia coli
From the text: (§1) We performed UV–visible difference spectroscopy to analyze the interaction mode of some inhibitors with the heme-active site of NOS [54]. We have studied the effects of dipeptide-like compounds 7, 17, 19, 23, and 27 and 1,2,4-oxadiazole 35 on the UV–visible spectra of the oxygenase domain of nNOS (nNOSoxy) and iNOS (iNOSoxy). As expected, when added stepwise to n- and iNOSoxy, all selected compounds elicited different spectra with a trough at ~425 nm and a peak at ~395 nm, similar to the substrate L-arginine. This profile is characteristic of type I interactions, meaning that they are bound in close proximity to the heme prosthetic group and shifted the spin state equilibrium to the pentacoordinated heme–Fe^III state. Double reverse plotting of the differences in absorbance between the peak at ~395 nm and valley at ~425 nm (ΔA395–425 nm) as a function of the concentration of the added compounds allowed calculating apparent binding constants (Ks) (Table 3). The reference inhibitor SEITU [55] tightly bound both NOS isoforms with high affinity but no selectivity. With the exception of the dipeptide-like 27 and the heterocyclic analog 35, which similarly interacted with both proteins, other compounds preferentially bound nNOSoxy over iNOSoxy with apparent affinities close to SEITU for this isoform.
(§2) Full-length recombinant rat nNOS, mouse iNOS, bovine eNOS, and the heme domains of rat brain nNOS and mouse iNOS were expressed in Escherichia coli and purified as described previously.
(§3) This study was performed as previously described.

[2] = target: T2, oxygenase domain of iNOS (iNOSoxy) (Mus musculus, UniProt P29477); test: UV-visible difference spectroscopy titration of iNOSoxy; type: binding; details: UV/Vis difference spectroscopy, ± SD, three experiments; read-out: Apparent equilibrium constant Ks iNOSoxy
T2 construct: the oxygenase domain of nNOS (nNOSoxy) and iNOS (iNOSoxy); made in house; host or cells: Escherichia coli
T2 sequence (P29477 1-498 limits assumed): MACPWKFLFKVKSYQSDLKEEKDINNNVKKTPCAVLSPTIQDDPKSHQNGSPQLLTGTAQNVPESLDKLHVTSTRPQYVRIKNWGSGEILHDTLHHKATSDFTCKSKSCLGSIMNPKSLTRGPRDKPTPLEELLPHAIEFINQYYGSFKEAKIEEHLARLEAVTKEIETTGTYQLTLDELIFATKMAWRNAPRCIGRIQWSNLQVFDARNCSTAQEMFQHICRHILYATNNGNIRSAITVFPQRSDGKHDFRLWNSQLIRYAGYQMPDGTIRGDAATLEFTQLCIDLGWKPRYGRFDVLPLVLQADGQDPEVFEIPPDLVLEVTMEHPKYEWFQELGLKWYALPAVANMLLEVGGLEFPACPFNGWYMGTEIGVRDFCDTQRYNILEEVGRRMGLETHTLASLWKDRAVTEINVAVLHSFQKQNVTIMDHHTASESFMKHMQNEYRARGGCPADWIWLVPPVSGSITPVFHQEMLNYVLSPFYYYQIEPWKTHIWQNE
From the text: as §1, §2, §3

[3] = target: T3, rat nNOS (Rattus norvegicus, UniProt P29476); test: NOS inhibition, oxyhemoglobin (hemoglobin capture) test, recombinant nNOS; type: biochemical; details: dipeptide-like series; recombinant enzyme, 10 µM arginine, triplicate; NI = <50% inhibition at 100 μM
T3 construct: Full-length recombinant rat nNOS, mouse iNOS, bovine eNOS; made in house; host or cells: Escherichia coli
T3 sequence (P29476 whole entry): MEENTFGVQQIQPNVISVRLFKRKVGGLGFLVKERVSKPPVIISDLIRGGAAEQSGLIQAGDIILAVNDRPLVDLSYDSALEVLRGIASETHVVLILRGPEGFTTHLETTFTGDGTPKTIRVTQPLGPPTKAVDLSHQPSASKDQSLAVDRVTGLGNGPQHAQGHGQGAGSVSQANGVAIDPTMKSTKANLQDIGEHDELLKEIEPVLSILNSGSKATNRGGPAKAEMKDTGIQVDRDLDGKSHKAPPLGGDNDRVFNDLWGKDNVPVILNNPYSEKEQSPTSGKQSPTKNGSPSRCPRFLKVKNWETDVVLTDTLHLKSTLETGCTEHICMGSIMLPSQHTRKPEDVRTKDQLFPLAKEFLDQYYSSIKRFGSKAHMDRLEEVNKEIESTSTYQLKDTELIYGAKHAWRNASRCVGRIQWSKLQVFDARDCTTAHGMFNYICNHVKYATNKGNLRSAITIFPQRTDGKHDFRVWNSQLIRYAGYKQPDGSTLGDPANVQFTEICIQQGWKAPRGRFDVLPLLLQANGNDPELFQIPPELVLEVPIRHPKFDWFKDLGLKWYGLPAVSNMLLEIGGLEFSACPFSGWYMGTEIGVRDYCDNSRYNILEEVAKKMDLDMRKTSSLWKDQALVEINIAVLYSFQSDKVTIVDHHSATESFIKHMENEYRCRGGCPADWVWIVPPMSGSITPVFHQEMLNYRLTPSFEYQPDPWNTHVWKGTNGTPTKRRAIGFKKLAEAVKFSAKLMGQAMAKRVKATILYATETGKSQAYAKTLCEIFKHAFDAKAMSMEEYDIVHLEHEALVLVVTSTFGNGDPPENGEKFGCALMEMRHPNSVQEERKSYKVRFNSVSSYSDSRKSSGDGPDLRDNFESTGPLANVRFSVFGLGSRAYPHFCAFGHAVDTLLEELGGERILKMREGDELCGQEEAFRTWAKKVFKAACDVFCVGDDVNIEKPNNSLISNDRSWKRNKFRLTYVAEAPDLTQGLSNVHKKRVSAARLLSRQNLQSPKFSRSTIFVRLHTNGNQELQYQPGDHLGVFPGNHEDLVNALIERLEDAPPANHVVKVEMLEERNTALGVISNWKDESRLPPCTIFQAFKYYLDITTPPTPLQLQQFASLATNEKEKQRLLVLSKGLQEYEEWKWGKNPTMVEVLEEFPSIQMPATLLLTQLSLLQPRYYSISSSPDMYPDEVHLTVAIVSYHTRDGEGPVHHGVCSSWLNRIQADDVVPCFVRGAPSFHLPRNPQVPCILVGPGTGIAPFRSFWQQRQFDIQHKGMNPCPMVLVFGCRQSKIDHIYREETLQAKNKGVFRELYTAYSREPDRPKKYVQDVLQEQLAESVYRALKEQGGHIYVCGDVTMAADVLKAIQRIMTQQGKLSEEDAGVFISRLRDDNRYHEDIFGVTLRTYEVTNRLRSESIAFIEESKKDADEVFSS
In short: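 Full-length E. coli-expressed recombinant enzyme; NO formation followed kinetically at 401 nm via oxyhemoglobin capture at 30 °C in 100 mM Hepes pH 7.5 with NADPH, BH4, FAD, FMN, DTT; arginine 20 µM (iNOS) or 10 µM (nNOS, plus calmodulin and CaCl2). Screened at 100 and 10 μM; IC50 if >50% inhibition at 100 μM.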

T1 sequence (P29476 1-720 limits assumed): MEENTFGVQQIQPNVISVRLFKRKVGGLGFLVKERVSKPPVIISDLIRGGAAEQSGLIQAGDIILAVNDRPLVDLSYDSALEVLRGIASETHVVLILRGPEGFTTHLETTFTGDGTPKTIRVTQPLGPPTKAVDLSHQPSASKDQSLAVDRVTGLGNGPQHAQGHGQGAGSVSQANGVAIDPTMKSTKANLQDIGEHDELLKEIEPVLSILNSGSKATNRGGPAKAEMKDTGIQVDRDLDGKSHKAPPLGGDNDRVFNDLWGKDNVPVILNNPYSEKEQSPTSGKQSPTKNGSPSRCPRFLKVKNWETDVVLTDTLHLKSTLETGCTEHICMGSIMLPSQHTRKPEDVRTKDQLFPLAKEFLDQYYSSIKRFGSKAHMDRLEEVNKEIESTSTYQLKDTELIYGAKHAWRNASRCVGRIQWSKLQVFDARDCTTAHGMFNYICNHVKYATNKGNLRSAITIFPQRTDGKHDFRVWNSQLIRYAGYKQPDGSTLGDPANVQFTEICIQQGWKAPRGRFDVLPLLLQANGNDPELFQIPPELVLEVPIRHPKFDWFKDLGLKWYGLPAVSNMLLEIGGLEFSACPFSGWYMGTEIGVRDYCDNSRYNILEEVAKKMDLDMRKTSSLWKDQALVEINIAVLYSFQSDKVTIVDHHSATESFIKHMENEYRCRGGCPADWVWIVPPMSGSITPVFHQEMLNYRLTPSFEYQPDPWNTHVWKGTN

| SMILES | Kd [1] [µM] | Kd [2] [µM] | IC50 [3] [µM] |
| --- | --- | --- | --- |
| CCSC(=N)NCCC[C@H](N)C(=O)N[C@H]1CCCN(Cc2ccccc2)C1 [Compound 7] | 7.1 ± 2.6 | 406 ± 97 | 17.5 |
| CCSC(=N)NCCC[C@H](N)C(=O)N[C@H]1CCCN(Cc2ccc(Cl)c(C(F)(F)F)c2)C1 [Compound 17] | 3.6 ± 1.5 | 36.4 ± 4.6 | 5 |
| CCSC(=N)NCCC[C@H](N)C(=O)N[C@H]1CCCN(Cc2cccc(-c3cccc(C(=O)O)c3)c2)C1 [Compound 27] | 70.6 ± 22.8 | 57.9 ± 8 | 9.5 |

Reference: article PMC10343299, “S-Ethyl-Isothiocitrullin-Based Dipeptides and 1,2,4-Oxadiazole Pseudo-Dipeptides: Solid Phase Synthesis and Evaluation as NO Synthase Inhibitors” (Molecules, 2023)
